ChEMBL document CHEMBL1201862, “PubChem BioAssay data set” (2004)
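A five-concentration, 48-hour dose response in 96-well plates underlies each endpoint, interpolated linearly between surrounding concentrations. GI50 marks 50% less growth.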 Calls of active or inactive are those of the source. No stated cut-off is given here; in the data, active = GI50 up to about 1.1 µM and inactive = higher.

Tests used:
Test in all cases: NCI-60 cell line screen, 48 h
HL-60 = tested on: HL-60
PC-3 = tested on: PC-3
HOP-62 = tested on: HOP-62
SNB-75 = tested on: SNB-75
OVCAR-4 = tested on: OVCAR-4
CCRF-CEM = tested on: CCRF-CEM
UO-31 = tested on: UO-31
NCI-H226 = tested on: NCI-H226
SF-539 = tested on: SF-539
EKVX = tested on: EKVX
786-0 = tested on: 786-0
HCC 2998 = tested on: HCC 2998
RPMI-8226 = tested on: RPMI-8226
NCI/ADR-RES = tested on: NCI/ADR-RES
MCF7 = tested on: MCF7
MDA-N = tested on: MDA-N
K562 = tested on: K562
A498 = tested on: A498
TK-10 = tested on: TK-10
SF-268 = tested on: SF-268

Measured: GI50

C/C(=N/NC(=S)N1CCCCCC1)c1cccc(/C(C)=N\NC(=S)N2CCCCCC2)n1
active: OVCAR-4 1.01 µM
inactive: HL-60 1.91 µM | PC-3 1.64 µM | HOP-62 1.89 µM | SNB-75 1.95 µM | CCRF-CEM 2.67 µM | UO-31 1.37 µM | NCI-H226 1.75 µM | SF-539 1.56 µM | EKVX 3.13 µM | 786-0 1.3 µM | HCC 2998 2.27 µM | RPMI-8226 1.91 µM | NCI/ADR-RES 1.69 µM | MCF7 1.57 µM | MDA-N 2.23 µM | K562 2.45 µM | A498 1.49 µM | TK-10 1.77 µM | SF-268 2.51 µM

CCCCCCCc1c(Cl)nc(Cl)nc1Cl
inactive: HL-60 2.45 µM | PC-3 8.28 µM | HOP-62 18.6 µM | SNB-75 14.6 µM | OVCAR-4 2.87 µM | UO-31 5.82 µM | NCI-H226 2.04 µM | SF-539 9.82 µM | EKVX 8.77 µM | 786-0 3.56 µM | HCC 2998 5.81 µM | RPMI-8226 2.84 µM | NCI/ADR-RES 4.26 µM | MCF7 10.4 µM | MDA-N 3.75 µM | K562 2.06 µM | A498 20.1 µM | TK-10 13.6 µM | SF-268 4.66 µM
active: CCRF-CEM 0.494 µM

CC(=O)N(C(C)=O)n1c(Cc2ccc(Cl)cc2)n[nH]c1=O
inactive: HL-60 > 100 µM | PC-3 > 100 µM | HOP-62 > 55.8 µM | SNB-75 > 81.8 µM | OVCAR-4 > 100 µM | CCRF-CEM > 100 µM | UO-31 > 100 µM | NCI-H226 > 100 µM | SF-539 > 100 µM | EKVX > 100 µM | 786-0 > 100 µM | HCC 2998 > 100 µM | RPMI-8226 > 100 µM | NCI/ADR-RES > 100 µM | MCF7 > 100 µM | MDA-N > 100 µM | K562 > 100 µM | A498 > 100 µM | TK-10 > 100 µM | SF-268 > 100 µM

O=C1C(Cl)=CC2(C=C1Cl)CCNC1=C2C(=O)c2nc[nH]c2C1=O
inactive: HL-60 24.4 µM | PC-3 35.3 µM | HOP-62 > 100 µM | SNB-75 97.5 µM | OVCAR-4 58.7 µM | CCRF-CEM 30.8 µM | UO-31 > 100 µM | NCI-H226 75.2 µM | SF-539 33.5 µM | EKVX 51.8 µM | 786-0 41.3 µM | HCC 2998 39.4 µM | RPMI-8226 30.5 µM | NCI/ADR-RES > 100 µM | MCF7 22.3 µM | MDA-N 18.5 µM | K562 29.4 µM | A498 36.6 µM | TK-10 > 100 µM | SF-268 54.6 µM

COc1cc2c(cc1OC)C(SC)C(=O)N(Cc1cccc(OC)c1OC)CC2 (stereo not given)
inactive: PC-3 1.28 µM | HOP-62 2.75 µM | SNB-75 3.3 µM | OVCAR-4 17.5 µM | CCRF-CEM 3.61 µM | UO-31 6.47 µM | NCI-H226 3.21 µM | SF-539 1.22 µM | EKVX 4.7 µM | 786-0 3.85 µM | HCC 2998 2.46 µM | RPMI-8226 3.61 µM | NCI/ADR-RES 2.73 µM | A498 2.03 µM | TK-10 5.62 µM | SF-268 4.67 µM
active: HL-60 0.411 µM | MCF7 0.746 µM | MDA-N 0.297 µM | K562 0.501 µM

Cc1ccc2c(c1)CC1(Cc3cccc(C)c3C1=O)C2=O (stereo not given)
inactive: HL-60 38.3 µM | PC-3 > 100 µM | HOP-62 > 100 µM | SNB-75 > 100 µM | OVCAR-4 55.8 µM | CCRF-CEM 70.1 µM | UO-31 20.9 µM | NCI-H226 > 100 µM | SF-539 > 100 µM | EKVX > 100 µM | 786-0 > 100 µM | HCC 2998 > 100 µM | RPMI-8226 > 100 µM | NCI/ADR-RES > 100 µM | MCF7 > 10 µM | MDA-N > 10 µM | K562 39.4 µM | A498 > 100 µM | TK-10 > 100 µM | SF-268 > 100 µM

O=c1c2ncn(C3CCCCO3)c2n(-c2ccccc2)c(=S)n1-c1ccccc1 (stereo not given)
inactive: HL-60 > 64.4 µM | PC-3 80.4 µM | HOP-62 10.4 µM | SNB-75 7.69 µM | OVCAR-4 40.4 µM | CCRF-CEM > 83 µM | UO-31 35.1 µM | NCI-H226 25.9 µM | SF-539 10.8 µM | EKVX 39.5 µM | 786-0 16.4 µM | HCC 2998 > 70 µM | RPMI-8226 > 52.7 µM | NCI/ADR-RES 30.1 µM | MCF7 49.5 µM | MDA-N > 66.1 µM | K562 > 68.7 µM | A498 30.7 µM | TK-10 31.9 µM | SF-268 11 µM

COC(=O)/C=C\C(C#N)(C#N)/N=C/c1ccc(C)s1
inactive: HL-60 2.29 µM | PC-3 2.63 µM | HOP-62 14.9 µM | SNB-75 3.12 µM | OVCAR-4 3.78 µM | UO-31 1.67 µM | NCI-H226 16.7 µM | SF-539 4.63 µM | EKVX 5.31 µM | 786-0 1.69 µM | HCC 2998 17.7 µM | RPMI-8226 1.9 µM | NCI/ADR-RES 5.92 µM | MCF7 1.49 µM | MDA-N 2.49 µM | A498 20.3 µM | TK-10 1.97 µM | SF-268 6.82 µM
active: CCRF-CEM 0.0847 µM | K562 0.998 µM

Cc1cc2c(c(O)c1-c1c(C)cc(O)c3c1C(=O)C=CC3=O)C(=O)C=CC2=O
inactive: PC-3 4.02 µM | HOP-62 20.3 µM | SNB-75 5.5 µM | OVCAR-4 3 µM | UO-31 1.63 µM | NCI-H226 20.2 µM | SF-539 2.88 µM | EKVX 1.59 µM | 786-0 1.16 µM | HCC 2998 3.13 µM | NCI/ADR-RES 2.49 µM | MDA-N 1.46 µM | A498 6.76 µM | SF-268 1.92 µM
active: HL-60 < 0.01 µM | CCRF-CEM < 0.01 µM | RPMI-8226 0.226 µM | MCF7 0.966 µM | K562 0.0337 µM | TK-10 0.855 µM

Cc1nc2ccc(S(=O)(=O)Nc3ccccn3)cc2c(=O)n1NS(=O)(=O)c1ccccn1
inactive: HL-60 > 100 µM | PC-3 > 100 µM | HOP-62 > 100 µM | SNB-75 > 100 µM | OVCAR-4 > 100 µM | CCRF-CEM > 100 µM | UO-31 > 100 µM | NCI-H226 > 100 µM | SF-539 > 100 µM | EKVX > 100 µM | 786-0 > 100 µM | HCC 2998 > 100 µM | RPMI-8226 > 100 µM | NCI/ADR-RES > 100 µM | MCF7 > 100 µM | MDA-N > 100 µM | K562 > 100 µM | A498 > 100 µM | TK-10 > 100 µM | SF-268 > 100 µM

COC(=O)c1ccccc1CC1Cc2ccc3c(c2C1)CCC3 (stereo not given)
inactive: HL-60 13.9 µM | PC-3 29.2 µM | HOP-62 38.9 µM | SNB-75 25.8 µM | OVCAR-4 24.2 µM | CCRF-CEM 17.9 µM | UO-31 37 µM | NCI-H226 35.1 µM | SF-539 56.2 µM | EKVX 17.3 µM | 786-0 33.3 µM | HCC 2998 23.8 µM | RPMI-8226 18.1 µM | NCI/ADR-RES 21 µM | MCF7 14.3 µM | MDA-N 34 µM | K562 29.6 µM | A498 > 100 µM | TK-10 21.3 µM | SF-268 41.3 µM

CCC1CN2CCc3c([nH]c4ccccc34)[C@@](C(=O)OC)(c3cc4c(cc3OC)N(C)C3C(O)(C(=O)OC)C(C(=O)OC)C5(CC)C=CCN6CCC43C65)C[C@@H](C2)[C@@H]1C(C)(C)C (stereo not given in full)
inactive: OVCAR-4 3.15 µM | UO-31 1.47 µM | EKVX 1.98 µM | NCI/ADR-RES 2.75 µM
active: HL-60 0.305 µM | PC-3 0.286 µM | HOP-62 0.257 µM | SNB-75 0.337 µM | CCRF-CEM 0.348 µM | NCI-H226 0.267 µM | SF-539 0.381 µM | 786-0 0.439 µM | HCC 2998 0.373 µM | RPMI-8226 0.469 µM | MCF7 0.461 µM | MDA-N 0.187 µM | K562 0.334 µM | A498 0.306 µM | TK-10 1.09 µM | SF-268 0.615 µM
